Results on two molecules are retold here after patent US5023087A, “Efficient method for preparation of prolonged release liposome-based drug delivery system” (Liposome Technology, Inc., priority 1989, dated 1991).

Data set [1] is described as follows: Clearance of 125I-sCT from the intramuscular or subcutaneous site of injection. The format is in vivo, Sprague-Dawley rats. The settings on record: free drug, FIG. 2/3. The method, then: The rate of clearance of sCT from a given liposome furmulation was determined by monitoring the clearance of ^125 I-sCT from the intramuscular site of injection. Salmon calcitonin was spiked with ^1251 -sCT and encapsulated in MLVs as described in Example I in such a way that after the removal of non-liposome associated drug, the injection sample contained about 10,000 cpm of ^125 I per injection.
Male Sprague-Dawley rats weighing 95 to 100 g were lightly anesthetized with ether, and 20 ul or 100 ul of the ^125 I-sCT liposome samples were injected either in the lower part of the forelimbs or the hindlimbs respectively. Sixteen to twenty rats were used in each experiment. […] At each time point, two rats were anesthetized for blood sampling (two ml blood were drawn and counted for ^125 I radioactivity). […] The limbs were inserted into tubes and then counted for remaining radioactivity in a gamma counter. The eight to ten time points shown in FIG. 2 were selected so that the half-life of clearance from the IM site could be determined by a semi-log plot of the radioactivity remaining versus time after injection as shown in FIG. 3. […]
The urine and feces from the two rats kept in metabolic cages throughout the experiment were collected and counted for radioactivity. […]

The nature of data set [2]: Plasma levels of immunoreactive sCT (radio-immunoassay) after IM injection. The settings on record: 1 ug. The format is in vivo, rats. The method, then:
Rats weighing 95 to 105 gm were injected intramuscularly in the forelimbs with sCT or sCT-MLVs. At each time point, four rats were bled by cardiac puncture and the blood collected in pre-chilled EDTA containing tubes. The plasma was collected after centrifugation at 4° C. and quickly frozen. The frozen samples were sent to Hazleton Laboratories for sCT radio-immunoassay (RIA). […] Thus, sCT-MLVs injected intramuscularly can achieve prolonged delivery to the systemic circulation.

The nature of data set [3]: Apparent first order absorption rate constant of gentamicin from urinary excretion after IM injection. The settings on record: lipid dose 0 umol/inj.
Protocol: The gentamicin concentration in the liposomes formulation was determined by the EMIT assay (Syva, Palo Alto, CA) after lysis in triton X-100.
Therefore, the apparent absorption rate constant, Ka, was estimated with the urinary excretion.
One group of four rats was immediately placed in metabolic cages (one rat per cage) and urine was collected at 24 hour intervals for the duration of the experiment. Cages were rinsed with distilled water after each collection and the volume of the pooled urine and rinses were recorded. An aliquot of each sample was frozen until assay.

Consider `CC(C)C[C@H](NC(=O)[C@H](CCCCN)NC(=O)CNC(=O)[C@H](CC(C)C)NC(=O)[C@@H](NC(=O)[C@@H]1CSSC[C@H](N)C(=O)N[C@@H](CO)C(=O)N[C@@H](CC(N)=O)C(=O)N[C@@H](CC(C)C)C(=O)N[C@@H](CO)C(=O)N[C@@H]([C@@H](C)O)C(=O)N1)C(C)C)C(=O)N[C@@H](CO)C(=O)N[C@@H](CCC(N)=O)C(=O)N[C@@H](CCC(=O)O)C(=O)N[C@@H](CC(C)C)C(=O)N[C@@H](Cc1c[nH]cn1)C(=O)N[C@@H](CCCCN)C(=O)N[C@@H](CC(C)C)C(=O)N[C@@H](CCC(N)=O)C(=O)N[C@H](C(=O)N[C@@H](Cc1ccc(O)cc1)C(=O)N1CCC[C@H]1C(=O)N[C@@H](CCCNC(=N)N)C(=O)N[C@H](C(=O)N[C@@H](CC(N)=O)C(=O)N[C@H](C(=O)NCC(=O)N[C@@H](CO)C(=O)NCC(=O)N[C@H](C(=O)N1CCC[C@H]1C(N)=O)[C@@H](C)O)[C@@H](C)O)[C@@H](C)O)[C@@H](C)O` [F-sCT, Salmon calcitonin], for which, in data set [1], the “clearance half-life from the site of IM injection” value is “a few minutes”. In data set [2], the “plasma immunoreactive sCT in circulation” value is “rapidly disappeared from circulation”. For the molecule gentamicin [Gentamicin solution], the “Rate Const. Ka (apparent first order absorption rate constant)” value in data set [3] turned out to be 5.3 h⁻¹.
